The nature of the data set: gradient 5% acetonitrile 3 min, to 50% in 2 min, to 85% in 15 min, held 3 min, 100 µL/min. The note with it: column: Zorbax Extend-C18 2.1 x 50 mm; eluents: water / acetonitrile, 0.1% formic acid. The method in brief: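 Using water and acetonitrile that each contained 0.1% formic acid, mixtures of ~100 pure standards were separated at 100 μL/min on a Zorbax Extend-C18 column (2.1 × 50 mm, 1.8 μm). The HPLC fed a quadrupole time-of-flight mass spectrometer working in positive and negative ionization mode, with dead and dwell volumes of 40 μL and 900 μL. Data were acquired over 3 months. Retention time was read from computationally picked adduct peaks after manual inspection of each.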
`COc1ccc(C)cc1NC(=O)N1CCCC(C)(C(=O)NCc2ccc(C)cc2)C1` (stereo not drawn) had an RP-LC retention time of 968 s.

The compound `CCOc1ccc(CNC(=O)c2ccc3c(c2)N(C)C(=O)C2CCCCN32)cc1OC` (stereo not drawn) had an RP-LC retention time of 774 s.

In turn, `COC(=O)C(=Cc1ccccc1[N+](=O)[O-])C(=O)OC` returned an RP-LC retention time of 883 s.

The compound `CCOc1ccc(-c2ccc(=O)n(CCCC(=O)Nc3ccccc3SC)n2)cc1` showed an RP-LC retention time of 853 s.

Compound `CC1=C(c2ccc(C)cc2)S(=O)(=O)N=C1N1CCC(NC(=O)C2CCCO2)CC1` (stereo not drawn) showed an RP-LC retention time of 902 s.

For `CCCC(=O)Nc1ccc2nc(N3CCN(CC)CC3)cc(C)c2c1`, the RP-LC retention time amounted to 560 s.

Consider `CC(C)Oc1ccc(CN2CC[C@]3(CO)CN(Cc4ccccc4)C[C@@H]3C2)cc1`, for which the RP-LC retention time worked out at 718 s.

For `CCC(CN(C)Cc1ccccc1)NC(=O)CN(c1ccccc1)S(=O)(=O)N(C)C` (stereo not drawn), the RP-LC retention time stood at 686 s.

As for `COc1ccc(-c2noc(-c3ccc(N4CCC(N5CCCCC5)CC4)nc3)n2)cc1`, the RP-LC retention time came out at 738 s.

Compound `CCc1ccc2c(c1)-c1ccccc1S(=O)(=O)N2CC(=O)N1CCN(C)CC1` yielded an RP-LC retention time of 662 s.

In the case of `Cc1ccoc1C(=O)N1C[C@@H](CO)[C@H](c2nc(C3CC3)no2)C1`, the RP-LC retention time amounted to 688 s.

As for `O=S(=O)(c1ccc(-c2noc(-c3ccc(Cl)cc3)n2)cc1)N1CCCC1`, the RP-LC retention time turned out to be 1260 s.

Compound `CC(=O)c1ccc(NC(=O)Cn2c(-c3ccc(F)cc3)nc(C)cc2=O)cc1` showed an RP-LC retention time of 953 s.

As to `CC(C)CC(=O)N1CCc2c([nH]c3ccccc23)C12C(=O)N(C)c1ccccc12` (stereo not drawn), the RP-LC retention time was determined as 951 s.

As for `Clc1nc2nc3n(c2nc1Cl)CCC3`, the RP-LC retention time turned out to be 761 s.

`COCCCNC(=O)C1CCCN(S(=O)(=O)c2cc(OC)ccc2OC)C1` (stereo not drawn) yielded an RP-LC retention time of 699 s.

As to `CCOC(=O)c1[nH]c(C)c(CCC(=O)N2CCCC(C(=O)NC3CCCCC3)C2)c1C` (stereo not drawn), the RP-LC retention time was 822 s.

With `COc1ccc(CN(C)Cc2cc(=O)n3ccc(C)cc3n2)cc1`, the RP-LC retention time was 608 s.

On to `O=C(NC1CC1)c1ccccc1OCC1CCN(C(=O)c2cc(F)cc(F)c2)CC1`, for which the RP-LC retention time amounted to 848 s.

Regarding `O=C(Nc1ccc2c(c1)OCCO2)N1CCN(Cc2ccccc2)c2ncccc21`, the RP-LC retention time was 731 s.

Take `Cc1ccc(-c2coc(-c3cccc(NS(=O)(=O)c4ccc(Cl)s4)c3)n2)cc1`: the RP-LC retention time is 1310 s.

As to `COc1ccc(OC)c2c1cc1n2CC(C)(C(=O)NC2CCCCCCC2)N(CCN(C)C)C1=O` (stereo not drawn), the RP-LC retention time worked out at 760 s.

Take `COc1ccc(S(=O)(=O)N2CCC(c3cnn(-c4cccc(C)c4)c3)CC2)cc1`: the RP-LC retention time is 1130 s.

`Cc1cccc(C)c1NC(=O)Cn1c(=O)n(Cc2ccc(F)cc2)c(=O)c2nccnc21`: the RP-LC retention time came out at 781 s.

For the compound `CC(C)CNC(=O)C1CC(=O)N(c2ccc3c(c2)CCN3C(=O)C2CC2)C1` (stereo not drawn), the RP-LC retention time is 698 s.

Compound `COC(=O)c1c(C)[nH]c(C(=O)N2CCC(CC(=O)NCc3ccccc3Cl)CC2)c1C` came in with an RP-LC retention time of 775 s.

As for `O=C(Cc1ccc(Cl)cc1)NCc1nc(-c2cccc(-c3csc(C4CC4)n3)c2)no1`, the RP-LC retention time was determined as 1120 s.

Compound `Cc1cnc(C2CC2)n1CCNC(=O)c1cccn1C` had an RP-LC retention time of 579 s.

In turn, `CCc1nnc([C@@H]2CC(F)(F)CN2C(=O)c2ccc3nc[nH]c3c2)o1` displayed an RP-LC retention time of 540 s.

Regarding `Cc1nnc(NC(=O)COc2ccc3ccccc3c2)s1`, the RP-LC retention time stood at 742 s.

For `COc1cccc(CNC(=O)C2CCN(c3ccc(SCc4ccccc4)nn3)CC2)c1`, the RP-LC retention time stood at 758 s.

On to `O=C1NCCCn2cc(S(=O)(=O)NCc3cccc(C(F)(F)F)c3)cc21`, for which the RP-LC retention time amounted to 718 s.

Consider `CCOC(=O)c1ccc(NC(=O)C2CCCN(c3nnc(C)c4c(C)n(-c5ccccc5)nc34)C2)cc1` (stereo not drawn), for which the RP-LC retention time worked out at 797 s.

In turn, `COC(=O)c1ccc2c(=O)n(-c3ccccc3)c(N3CCN(c4ccccn4)CC3)nc2c1` came in with an RP-LC retention time of 684 s.

`CCc1nnc([C@@H]2CC(F)(F)CN2C(=O)Cn2nc(C)cc2C)o1`: the RP-LC retention time came out at 612 s.

For `COc1ccc(-c2nc(-c3ccc4ncn(C(C)C)c4c3)no2)c(C)c1`, the RP-LC retention time turned out to be 881 s.

`Cc1ccc(-c2cc(C(=O)N3CCC(NC(=O)C4CCCCC4)CC3)[nH]n2)c(C)c1` yielded an RP-LC retention time of 811 s.

On to `O=C(Nc1ccccc1F)Nc1c(-c2ccccc2)nc2ccccn12`, for which the RP-LC retention time came out at 666 s.

Consider `CCc1nc(-c2ccc3c(c2)CCN3C(=O)COc2ccc(OC)cc2)no1`, for which the RP-LC retention time is 1000 s.

In turn, `COc1cc(Cl)ccc1-c1nc(-c2ccc3c(c2)oc(=O)n3C)no1` displayed an RP-LC retention time of 1060 s.

In the case of `CN(C)S(=O)(=O)c1ccc2c(c1)N(CC(=O)NC1CCCCCCC1)C(=O)C1CCCCN21` (stereo not drawn), the RP-LC retention time stood at 692 s.

Compound `CN(C)S(=O)(=O)c1ccc(-c2nnc(C(=O)NCCN3CCc4ccccc4C3)o2)cc1` came in with an RP-LC retention time of 642 s.

Take `CCn1cc(CCNC(=O)Nc2ccccc2)c2cccnc21`: the RP-LC retention time worked out at 693 s.

Consider `CCS(=O)(=O)N1CC(=O)N(Cc2ccc(Cl)cc2)C(C)(C(=O)NC2CCCCCCC2)C1` (stereo not drawn), for which the RP-LC retention time is 1040 s.

`COC(=O)C1CCN([C@H]2CS(=O)(=O)C[C@@H]2S(=O)(=O)c2ccc(Cl)cc2)CC1` yielded an RP-LC retention time of 856 s.

The compound `C=CCn1c(NCc2cccc(Br)c2)nc2ccccc21` returned an RP-LC retention time of 703 s.

`COc1cccc(CC(=O)NC2CCN(c3cc(-c4ccccc4)[nH]n3)C2)c1` (stereo not drawn) gave an RP-LC retention time of 673 s.

In turn, `COc1cccc(-c2noc(CN3C(=O)COc4cc(C)ccc43)n2)c1` yielded an RP-LC retention time of 1050 s.

Regarding `CCOc1ccc(-c2nc(COc3cc(C)c4c(C)nn(C)c4n3)c(C)o2)cc1OC`, the RP-LC retention time stood at 1110 s.

Consider `CCCCCn1c(=O)c2ccccc2n(Cc2nc(-c3ccc(C)c(C)c3)no2)c1=O`, for which the RP-LC retention time is 795 s.

`CC(=O)N1CCCC1c1nc(C2CN(C(=O)CCn3cc(C)cn3)C2)no1` (stereo not drawn) returned an RP-LC retention time of 604 s.

`Cn1cc(C2=CCN(S(=O)(=O)c3cccc(C#N)c3)CC2)c2cccnc21` showed an RP-LC retention time of 904 s.

`CCc1nc2cc(N3CCC(C(=O)NCc4ccccn4)CC3)cnc2nc1CC` gave an RP-LC retention time of 601 s.

As for `CC(Oc1ccccc1)C(=O)NCCCn1cccc1` (stereo not drawn), the RP-LC retention time came out at 783 s.

`CCOc1ccc(C(=O)N2C[C@@H]3C[C@H](NC(=O)c4cccs4)[C@H]2C3)cc1` yielded an RP-LC retention time of 783 s.

Consider `Cc1ccccc1CNC(=O)Cc1cn(C)c2ncccc12`, for which the RP-LC retention time was 689 s.

`CN(Cc1ccccc1)C(=O)c1ccc(NC(=O)[C@H]2[C@@H]3C[C@@H]4[C@H]2C(=O)O[C@@H]4C3)cc1` came in with an RP-LC retention time of 775 s.

As for `Cc1cc(C)n(-c2nc(C)c(C(=O)N3CCc4ccccc4C3)s2)n1`, the RP-LC retention time amounted to 1090 s.

Values taken from the METLIN SMRT retention time set (Domingo-Almenara et al. 2019).
